Source: PMC5238498, “Bivalent IAP antagonists, but not monovalent IAP antagonists, inhibit TNF-mediated NF-κB signaling by degrading TRAF2-associated cIAP1 in cancer cells” (Cell Death Discovery, 2017)

target: T1, cIAP1 BIR3 domain (Homo sapiens, UniProt Q13490); test: fluorescence polarization assay; conditions: read-out: cIAP1 BIR3 binding (Ki, nmol/l)
T1 construct: gene BIRC2; isolated purified BIR3 domain
Excerpt: fluorescence polarization assay on cIAP1 BIR3 domain

T1 sequence (Q13490 260-352 limits assumed): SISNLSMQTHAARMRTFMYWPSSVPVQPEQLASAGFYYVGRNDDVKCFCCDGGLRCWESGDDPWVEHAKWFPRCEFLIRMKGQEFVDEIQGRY

Row | Ki [nmol/L] | SMILES
1 | ~1 | CN[C@@H](C)C(=O)N[C@H](C(=O)N1C[C@@H](O)C[C@H]1Cc1c[nH]c2cc(F)ccc12)C(C)(C)C [M3]
2 | ~1 | CC[C@H](NC(=O)[C@H](C)NC)C(=O)N1C[C@@H](O)C[C@H]1Cc1c[nH]c2cc(F)ccc12 [M1]
3 | ~1 | CN[C@@H](C)C(=O)N[C@H](C(=O)N1C[C@@H](O)C[C@H]1Cc1c(-c2[nH]c3cc(F)ccc3c2C[C@@H]2C[C@H](O)CN2C(=O)[C@@H](NC(=O)[C@H](C)NC)C(C)(C)C)[nH]c2cc(F)ccc12)C(C)(C)C [B3]
4 | ~1 | CN[C@@H](C)C(=O)N[C@H](C(=O)N1C[C@@H](O)C[C@H]1Cc1c(-c2[nH]c3cc(F)ccc3c2C[C@@H]2C[C@H](O)CN2C(=O)[C@@H](NC(=O)[C@H](C)NC)[C@@H](C)OC)[nH]c2cc(F)ccc12)[C@@H](C)OC [B2]
5 | ~1 | CN[C@@H](C)C(=O)N[C@H](C(=O)N1C[C@@H](O)C[C@H]1Cc1c[nH]c2cc(F)ccc12)[C@@H](C)OC [M2]
